In brackets after ≈: the same amount, converted by molar mass.

One assay relates to A549. Kind of assay: Cytotoxicity against human A549 cells after 72 hrs by MTT assay. The class given is functional, cell-based. Particulars: A549, 72 h. (Formazan colour is commonly taken as a measure of viable cells.)
Another assay has as its system HL-60. Kind of assay: Cytotoxicity against human HL60 cells after 72 hrs by MTT assay. The class given is functional, cell-based. Particulars: HL-60, 72 h.
The subject of a further assay is Bacillus subtilis. Kind of assay: Antimicrobial activity against Bacillus subtilis after 24 hrs by disk diffusion method. In kind it is functional. In general terms: Agar diffusion results depend on both activity and mobility in agar.
A further assay concerns Escherichia coli. Kind of assay: Antimicrobial activity against Escherichia coli after 24 hrs by disk diffusion method. In kind it is functional.
For a further assay, the system named is Micrococcus luteus. Kind of assay: Antimicrobial activity against Micrococcus lysodeikticus after 24 hrs by disk diffusion method. The class given is functional.

The IC50 is the point on the concentration scale where inhibition reaches its midpoint. Regarding `COc1ccc2c(c1)NC(=O)[C@@]21C=C2C(=O)N3CCC[C@H]3C(=O)N2[C@H]1C=C(C)C` [SPIROTRYPROSTATIN B], the IC50 in the assay on A549 amounted to 8.29 µM; with HL-60, 9.71 µM.
Broadly, the MIC is the least concentration at which growth counts as inhibited. `CC(=O)O[C@H]1C[C@@]2(C)[C@@H](CC[C@H]3[C@@]4(C)C=CC(=O)[C@@H](C)[C@@H]4[C@H](OC(C)=O)C(=O)[C@@]32C)/C1=C(\CCC=C(C)C)C(=O)O` [HELVOLIC ACID]: the MIC against Bacillus subtilis amounted to 22 µM (≈ 12.5 µg/mL); against Escherichia coli it was 87.9 µM (≈ 50 µg/mL); in the assay with Micrococcus luteus it was 11 µM (≈ 6.25 µg/mL).
Turning to `CC/C=C\[C@H](O)[C@H](O)C1=C(C)C(=O)[C@]2(O1)C(=O)N[C@@](OC)(C(=O)c1ccccc1)[C@@H]2O` [PSEUROTIN A], the figures for the MIC in the assay with Bacillus subtilis, with Escherichia coli and with Micrococcus luteus were 14.5 µM (≈ 6.25 µg/mL), 14.5 µM (≈ 6.25 µg/mL) and 7.42 µM (≈ 3.2 µg/mL), respectively.
For `COc1ccc2c(C[C@@H]3NC(=O)[C@@H]4CCCN4C3=O)c(C(=O)C=C(C)C)[nH]c2c1` [18-OXOTRYPROSTATIN A], in the assay with A549, the midpoint of inhibition, the IC50, lay at 1.28 µM. This lies in the single-digit micromolar range.
Molecule `CC(C)=CCc1cccc2c(C[C@H]3C(=O)N[C@@H](C)C(=O)N3O)c[nH]c12` came in with an IC50 in the assay with A549 of 7.31 µM.
As to `C/C=C\[C@H](O)[C@H](O)C1=C(C)C(=O)[C@]2(O1)C(=O)N[C@@](OC)(C(=O)c1ccccc1)[C@@H]2O` [14-NORPSEUROTIN A], the MIC in the assay on Bacillus subtilis was determined as 15 µM (≈ 6.25 µg/mL); in the assay on Escherichia coli, 3.74 µM (≈ 1.56 µg/mL); in the assay with Micrococcus luteus, 7.49 µM (≈ 3.13 µg/mL).
Take `CC(=O)O[C@H]1C[C@@]2(C)[C@@H](CC[C@H]3[C@@]4(C)C=CC(=O)[C@@H](C)[C@@H]4[C@H](OC(C)=O)C(=O)[C@@]32C)/C1=C(\CCCC(C)(C)O)C(=O)O`: the MIC is 5.33 µM (≈ 3.13 µg/mL) with Bacillus subtilis, 10.7 µM (≈ 6.25 µg/mL) with Escherichia coli and 10.7 µM (≈ 6.25 µg/mL) against Micrococcus luteus.

(Values after ChEMBL document CHEMBL1157412, “Cytotoxic alkaloids and antibiotic nordammarane triterpenoids from the marine-derived fungus Aspergillus sydowi” (J Nat Prod, 2008).)
